Test results: US20220040212A1, “ORAL REHYDRATION COMPOSITION WITH OLIGOSACCHARIDES” (ABBOTT LABORATORIES, priority 2013, published 2022)
“And” between values parts separate entries of the source, which are not always exact repeats. Equal values may be shown once.

Assays:
[1] = Stability of oligosaccharides in oral rehydration solution, before/after retort sterilization and 3 weeks after (HPAEC); assay type: physicochemical; conditions: for 6′-SL / Lactose / Sialic acid / % Theoretical 6′-SL: 6′-SL sample, pH 3.5; for % Theoretical 6′-SL: fortification 0.2 g/L
Description: A study was conducted to determine the relative stabilities of GOS, FOS, 2′-FL, 6′-SL, and LNnT in an oral rehydration solution. A master batch of product was prepared (shown in Table 1), the pH adjusted to approx. 4.25, and subsequently divided into five sub-batches.
Oligosaccharide ingredients were added to each of the sub-batches in amounts shown Table 2, and the pH of each sub-batch was subsequently adjusted to 3.5 with citric acid. The solutions were filled into 1 L plastic bottles, capped and retorted with a cook temperature of 217° F. for 25 minutes. Duplicate samples were collected immediately prior to sterilization and within 24 h after sterilization. Prior to sample analysis, the unsterile samples were stored at refrigerated temperature (˜40° F.) and the sterilized samples were held ambient temperature.
Samples were analyzed by HPAEC using a Dionex ICS3000 Ion Chromatography System (Thermo Scientific, Inc., Sunnyvale, Calif.) equipped with a pulsed amperometric detector comprised of a AgCl reference electrode, gold working electrode, and CarboPac PA1 guard (4×50 mm) and analytical columns (4×250 mm). Mobile phases were degassed and pressurized with 3 to 5 psi helium, and oligosaccharides eluted from the columns using various gradients detailed in Tables 3-5 at a flow rate of 1.0 mL/min. The column and detector were held at 20±2° C. Oligosaccharide identification and concentration were determined from quadratic fit (not forced through the origin) standard curves. […]
2′-FL fortification was calculated to be 0.2 g/L. Testing samples were reconstituted at 20 mL to 100 ml, with water, and then filtered using a 0.2 μm PES membrane syringe filter.
LNnT fortification was calculated to be 0.256 g/L. Testing samples were reconstituted at 20 mL to 100 ml, with water, and then filtered using a 0.2 μm PES membrane syringe filter.
6′-SL fortification was calculated to be 0.2 g/L. Testing samples were reconstituted at 20 mL to 100 mL with water, and then filtered using a 0.2 μm PES membrane syringe filter.

[2] = Stability of 2′-FL, LNnT and 6′-SL in an ORC over time (0 D to 14 weeks); assay type: physicochemical; conditions: for % Remaining * (6′-SL): vs target fortification
Description: Another study was performed to determine the stability of 2′-FL, LNnT, and 6′-SL in an ORC over time (e.g., 1 week, 3 weeks, 6 weeks, and 14 weeks).
Sample Preparation: A master batch with a pH of 4.25 is sub-divided. The oligosaccharides are added to the respective ORC in an amount of 0.2 g/L for 2′-FL and 6′-SL, LNnT was fortified in an amount of 0.256 g/L. The pH was then adjusted from 4.25 to 3.5 by addition of citric acid. Prior to sterilization, samples are collected to evaluate oligosaccharide levels. The formulas were then delivered into 1 L bottles and subjected to heat sterilization and allowed to cool to room temperature.
The data on day 0 was collected in duplicate for samples prior to sterilization (unsterile) and after sterilization (sterile), thereafter the data was collected only on the sterilized samples. […] The slight fluctuation in lactose and lactulose levels are likely due to method variability.
The data on day 0 was collected in duplicate for samples prior to sterilization (unsterile) and after sterilization (sterile), thereafter the data was collected only on the sterilized samples.
The data on day 0 was collected in duplicate for samples prior to sterilization (unsterile) and after sterilization (sterile), thereafter the data was collected only on the sterilized samples. […] At 14 weeks, the concentration was 2.3% of the target fortification amount.

[3] = 3-week after sterilization, average
[4] = 3-week after sterilization, samples 1, 2
[5] = sterile (after retort 217° F. 25 min), samples 1, 2
[6] = sterile (after retort), average
[7] = 6′-SL ORC pH 3.5, 0 D, sterile, average
[8] = 6′-SL ORC pH 3.5, 0 D, sterile, samples 1, 2
[9] = 6′-SL ORC pH 3.5, 0 D, unsterile, average
[10] = 6′-SL ORC pH 3.5, 0 D, unsterile, samples 1, 2
[11] = 6′-SL ORC pH 3.5, 3 WK, sterile, average
[12] = 6′-SL ORC pH 3.5, 3 WK, sterile, samples 1, 2
[13] = 6′-SL ORC pH 3.5, 6 WK, sterile, average
[14] = 6′-SL ORC pH 3.5, 6 WK, sterile, samples 1, 2
[15] = 6′-SL ORC pH 3.5, 14 WK, sterile, average
[16] = 6′-SL ORC pH 3.5, 14 WK, sterile, samples 1, 2

CC(=O)N[C@H]1[C@H]([C@H](O)[C@H](O)CO)O[C@@](OC[C@H]2O[C@@H](O[C@H]3[C@H](O)[C@@H](O)[C@H](O)O[C@@H]3CO)[C@H](O)[C@@H](O)[C@H]2O)(C(=O)O)C[C@@H]1O [6′-SL, 6′-sialyllactose]
6′-SL [1, 3]: 10.5 mg/L | Lactose [1, 3]: 153 mg/L | Sialic acid [1, 3]: 82.9 mg/L | % Theoretical 6′-SL [1, 3]: 5.27% | 6′-SL [1, 4]: 10.5 mg/L and 10.6 mg/L | Lactose [1, 4]: 152.2 mg/L and 154 mg/L | Sialic acid [1, 4]: 82.89 mg/L and 82.96 mg/L | % Theoretical 6′-SL [1, 4]: 5.249% and 5.3% | 6′-SL [1, 5]: 10.39 mg/L and 11.0 mg/L | Lactose [1, 5]: 149.4 mg/L | Sialic acid [1, 5]: 83.46 mg/L and 83.79 mg/L | 6′-SL [1, 6]: 10.7 mg/L | Lactose [1, 6]: 149 mg/L | Sialic acid [1, 6]: 83.6 mg/L | 6′-SL ([1]; unsterile, average): 173 mg/L | Lactose ([1]; unsterile, average): 24.6 mg/L | Sialic acid ([1]; unsterile, average): 4.95 mg/L | 6′-SL ([1]; unsterile, samples 1, 2): 170.8 mg/L and 174.5 mg/L | Lactose ([1]; unsterile, samples 1, 2): 24.22 mg/L and 24.90 mg/L | Sialic acid ([1]; unsterile, samples 1, 2): 5.055 mg/L and 4.842 mg/L | Further loss 3-weeks after sterilization, relative to sterilized sample (in words) ([1]; oral rehydration solution pH 3.5, 3-weeks after sterilization): No additional loss | Loss of oligosaccharide during sterilization (in words) ([1]; oral rehydration solution pH 3.5, retort 217° F. 25 min): Significant loss | 6′-SL [2, 7]: 10.7 mg/L | Lactose [2, 7]: 149 mg/L | Sialic acid [2, 7]: 83.6 mg/L | % Remaining * (6′-SL) [2, 7]: 5.35% | 6′-SL [2, 8]: 10.39 mg/L and 11 mg/L | Lactose [2, 8]: 149.4 mg/L | Sialic acid [2, 8]: 83.46 mg/L and 83.79 mg/L | % Remaining * (6′-SL) [2, 8]: 5.195% and 5.502% | 6′-SL [2, 9]: 173 mg/L | Lactose [2, 9]: 24.6 mg/L | Sialic acid [2, 9]: 4.95 mg/L | % Remaining * (6′-SL) [2, 9]: 86.3% | 6′-SL [2, 10]: 170.8 mg/L and 174.5 mg/L | Lactose [2, 10]: 24.22 mg/L and 24.9 mg/L | Sialic acid [2, 10]: 5.055 mg/L and 4.842 mg/L | % Remaining * (6′-SL) [2, 10]: 85.42% and 87.24% | 6′-SL [2, 11]: 10.5 mg/L | % Remaining ** (6′-SL) [2, 11]: 5.27% | Lactose [2, 11]: 153 mg/L | Sialic acid [2, 11]: 82.9 mg/L | 6′-SL [2, 12]: 10.5 mg/L and 10.6 mg/L | % Remaining ** (6′-SL) [2, 12]: 5.249% and 5.3% | Lactose [2, 12]: 152.2 mg/L and 154.0 mg/L | Sialic acid [2, 12]: 82.89 mg/L and 82.96 mg/L | 6′-SL [2, 13]: 10.5 mg/L | % Remaining ** (6′-SL) [2, 13]: 5.26% | Lactose [2, 13]: 172 mg/L | Sialic acid [2, 13]: 98 mg/L | 6′-SL [2, 14]: 10.47 mg/L and 10.59 mg/L | % Remaining ** (6′-SL) [2, 14]: 5.234% and 5.295% | Lactose [2, 14]: 170.5 mg/L and 174.4 mg/L | Sialic acid [2, 14]: 98.77 mg/L and 97.2 mg/L | 6′-SL [2, 15]: 4.6 mg/L | % Remaining ** (6′-SL) [2, 15]: 2.31% | Lactose [2, 15]: 152 mg/L | Sialic acid [2, 15]: 91.7 mg/L | 6′-SL [2, 16]: 4.66 mg/L and 4.57 mg/L | % Remaining ** (6′-SL) [2, 16]: 2.330% and 2.285% | Lactose [2, 16]: 149.5 mg/L and 155.1 mg/L | Sialic acid [2, 16]: 91.10 mg/L and 92.22 mg/L | Concentration as % of the target fortification amount ([2]; 6′-SL ORC pH 3.5, at 14 weeks): 2.3% | Discoloration relative to the other test compositions ([2]; ORC pH 3.5, heat sterilized): Slight discoloration | Change of oligosaccharide level over the course of the study (in words) ([2]; ORC pH 3.5, heat sterilized, 0 D to 14 weeks): significant decrease
